Assay results published in PubChem BioAssay (NCI).
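Results reflect a 48-hour exposure of cells in 96-well plates to compound at five concentrations. Abbreviation: GI50, concentration required for 50% inhibition of growth. TGI is the concentration that stops growth completely.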

Experiments:
Assay in all cases: inhibition of tumour cell growth, NCI panel, 48 h
OVCAR-8 ovarian = system: OVCAR-8 ovarian
BT-549 breast = system: BT-549 breast
SF-539 CNS = system: SF-539 CNS
HCC-2998 colon = system: HCC-2998 colon
OVCAR-5 ovarian = system: OVCAR-5 ovarian
COLO 205 colon = system: COLO 205 colon
SF-268 CNS = system: SF-268 CNS
UACC-62 melanoma = system: UACC-62 melanoma
CCRF-CEM leukemia = system: CCRF-CEM leukemia
PC-3 prostate = system: PC-3 prostate
786-0 renal = system: 786-0 renal
DU-145 prostate = system: DU-145 prostate
MDA-MB-435 = system: MDA-MB-435
NCI-H522 lung = system: NCI-H522 lung
TK-10 renal = system: TK-10 renal
MDA-MB-468 breast = system: MDA-MB-468 breast
OVCAR-4 ovarian = system: OVCAR-4 ovarian
K-562 leukemia = system: K-562 leukemia
A498 renal = system: A498 renal
HCT-116 colon = system: HCT-116 colon
SNB-19 CNS = system: SNB-19 CNS
T-47D breast = system: T-47D breast
SNB-75 CNS = system: SNB-75 CNS
KM12 colon = system: KM12 colon
RXF 393 renal = system: RXF 393 renal
NCI-H226 lung = system: NCI-H226 lung
HT29 colon = system: HT29 colon
MCF7 breast = system: MCF7 breast

Compound: O=C(N/N=C/c1ccc(B(O)O)o1)c1[nH]c2ccc(Br)cc2c1-c1ccccc1
- GI50 (OVCAR-8 ovarian): 17.7 µM
- TGI (OVCAR-8 ovarian): 41.6 µM
- GI50 (BT-549 breast): 12 µM
- TGI (BT-549 breast): 33.3 µM
- GI50 (SF-539 CNS): 13 µM
- TGI (SF-539 CNS): 31.3 µM
- GI50 (HCC-2998 colon): 25.4 µM
- TGI (HCC-2998 colon): 90.2 µM
- GI50 (OVCAR-5 ovarian): 27.5 µM
- TGI (OVCAR-5 ovarian): > 100 µM
- GI50 (COLO 205 colon): 19.8 µM
- TGI (COLO 205 colon): 46.6 µM
- GI50 (SF-268 CNS): 16.1 µM
- TGI (SF-268 CNS): > 100 µM
- GI50 (UACC-62 melanoma): 3.24 µM
- TGI (UACC-62 melanoma): 15.5 µM
- GI50 (CCRF-CEM leukemia): 17.5 µM
- TGI (CCRF-CEM leukemia): 55.4 µM
- GI50 (PC-3 prostate): 12.9 µM
- TGI (PC-3 prostate): > 100 µM
- GI50 (786-0 renal): 17.9 µM
- TGI (786-0 renal): 54.6 µM
- GI50 (DU-145 prostate): 32.3 µM
- TGI (DU-145 prostate): > 100 µM
- GI50 (MDA-MB-435): 3.66 µM
- TGI (MDA-MB-435): > 100 µM
- GI50 (NCI-H522 lung): 2940 nM
- TGI (NCI-H522 lung): 13.5 µM
- GI50 (TK-10 renal): 37.1 µM
- TGI (TK-10 renal): > 100 µM
- GI50 (MDA-MB-468 breast): 19.3 µM
- TGI (MDA-MB-468 breast): 57.2 µM
- GI50 (OVCAR-4 ovarian): 47 µM
- TGI (OVCAR-4 ovarian): > 100 µM
- GI50 (K-562 leukemia): 5.46 µM
- TGI (K-562 leukemia): 45 µM
- GI50 (A498 renal): 23.3 µM
- TGI (A498 renal): > 100 µM
- GI50 (HCT-116 colon): 16.9 µM
- TGI (HCT-116 colon): > 100 µM
- GI50 (SNB-19 CNS): 21.1 µM
- TGI (SNB-19 CNS): 89.7 µM
- GI50 (T-47D breast): 21.4 µM
- TGI (T-47D breast): > 100 µM
- GI50 (SNB-75 CNS): 3.26 µM
- TGI (SNB-75 CNS): 20.6 µM
- GI50 (KM12 colon): 19.2 µM
- TGI (KM12 colon): > 100 µM
- GI50 (RXF 393 renal): 5.38 µM
- TGI (RXF 393 renal): 24.1 µM
- GI50 (NCI-H226 lung): 45.8 µM
- TGI (NCI-H226 lung): > 100 µM
- GI50 (HT29 colon): 20.6 µM
- TGI (HT29 colon): 50.9 µM
- GI50 (MCF7 breast): 24.7 µM
- TGI (MCF7 breast): > 100 µM
